Laboratory results published in patent publication US4282248A, “Pinene derivatives and pharmaceutical compositions containing the same” (priority 1978, dated 1981).

Key:
Assay type in all cases: in vivo
[1] = foot pressure test (rat foot pressure); conditions: for ED50: Rattus norvegicus
Protocol: (§1) The analgetic activity was tested by the acetic acid induced writhing test (Sofia et al., J. Pharmacol.Expt.Therap. 18, 646, 1973), by the tail flick test (Grotto et al., Arch Intern.Pharmacodyn. 170, 257, 1967) and by the foot pressure test (Randall and Selito, Arch, Int. Pharmacodyn. 409, 1957). The central nervous system action was tested by the mouse ring test (Pertwee, Brit. J. Pharmacol. 46, 753, 1972).

[2] = acetic acid induced writhing test (mouse writhing); conditions: for ED50: Mus musculus
Protocol: as §1

[3] = tail flick test (mouse tail flick); conditions: for ED50: Mus musculus
Protocol: as §1

SMILES: CCCCCCC(C)(C)c1cc(OC(C)=O)c(C2C=C(COC(C)=O)C3CC2C3(C)C)c(OC(C)=O)c1 (single isomer, unassigned) [VIIIa(+), 4-Trans-[2-(5-(1,1-dimethylheptyl)-resorcyl)]-10-hydroxy-pin-2-ene triacetate]
- ED50 [1]: 50 mg/kg
- ED50 [2]: 18 mg/kg
- ED50 [3]: 50 mg/kg

SMILES: CCCCCCC(C)(C)c1cc(OC(C)=O)c(C2C=C(COC(C)=O)C3CC2C3(C)C)c(OC(C)=O)c1 (single isomer, unassigned) [VIIIa(-), 4-trans-[2-(5-(1,1-dimethylheptyl)-resorcyl)]-10-hydroxy-pin-2-ene, triacetate]
- Rat foot pressure ED50 [1]: 50 mg/kg
- Mouse writhing ED50 [2]: 18 mg/kg
- Mouse tail flick ED50 [3]: 30 mg/kg

SMILES: CCCCCC(C)C(C)c1cc(OC(C)=O)c(C2C=C(COC(C)=O)C3CC2C3(C)C)c(OC(C)=O)c1 (single isomer, unassigned) [VIIIb(+), 4-Trans-[2-(5-(1,2-dimethylheptyl-resorcyl)]-10-hydroxy-pin-2-ene, triacetate]
- ED50 [1]: 50 mg/kg
- ED50 [2]: 10 mg/kg
- ED50 [3]: 50 mg/kg

SMILES: CCCCCC(C)C(C)c1cc(OC(C)=O)c(C2C=C(COC(C)=O)C3CC2C3(C)C)c(OC(C)=O)c1 (single isomer, unassigned) [VIIIb(-), 4-trans-[2-(5-(1,2-dimethylpheptyl)]-resorcyl)-10-hydroxy-pin-2-ene, triacetate]
- Rat foot pressure ED50 [1]: 50 mg/kg
- Mouse writhing ED50 [2]: 10 mg/kg
- Mouse tail flick ED50 [3]: 30 mg/kg

SMILES: CCCCCCC(C)(C)c1cc(OC(C)=O)c(C2C=C(COC(=O)C(C)(C)C)C3CC2C3(C)C)c(OC(C)=O)c1 (single isomer, unassigned) [VIIIc(+)]
- ED50 [1]: > 50 mg/kg
- ED50 [2]: 25 mg/kg
- ED50 [3]: > 50 mg/kg

SMILES: CCCCCCC(C)(C)c1cc(OC(C)=O)c(C2C=C(COC(=O)C(C)(C)C)C3CC2C3(C)C)c(OC(C)=O)c1 (single isomer, unassigned) [VIIIc(-)]
- Rat foot pressure ED50 [1]: > 50 mg/kg
- Mouse writhing ED50 [2]: 25 mg/kg
- Mouse tail flick ED50 [3]: > 50 mg/kg

SMILES: CCCCCC(C)C(C)c1cc(OC(C)=O)c(C2C=C(COC(=O)C(C)(C)C)C3CC2C3(C)C)c(OC(C)=O)c1 (single isomer, unassigned) [VIIId(+), 4-trans-[2-(5-(1,2-dimethylheptyl)-resorcyl diacetate)]-10-hydroxy-pin-2-ene-10-pivalate]
- ED50 [1]: > 50 mg/kg
- ED50 [2]: 25 mg/kg
- ED50 [3]: > 50 mg/kg

SMILES: CCCCCC(C)C(C)c1cc(OC(C)=O)c(C2C=C(COC(=O)C(C)(C)C)C3CC2C3(C)C)c(OC(C)=O)c1 (single isomer, unassigned) [VIIId(-), 4-trans-[2-(5-(1,2-dimethylheptyl)-resorcyl diacetate)]-10-hydroxy-pin-2-ene-10-pivalate]
- Rat foot pressure ED50 [1]: > 50 mg/kg
- Mouse writhing ED50 [2]: 25 mg/kg
- Mouse tail flick ED50 [3]: > 50 mg/kg

SMILES: CCCCCCC(C)(C)c1cc(O)c(C2C=C(CO)C3CC2C3(C)C)c(O)c1 (single isomer, unassigned) [VIIa(+), 4-Trans-[2-(5-(1,1-dimethylheptyl)-resorcyl)]-10-hydroxy-pin-2-ene]
- ED50 [1]: 15 mg/kg
- ED50 [2]: 5 mg/kg
- Mouse tail flick ED50 [3]: 30 mg/kg

SMILES: CCCCCCC(C)(C)c1cc(O)c(C2C=C(CO)C3CC2C3(C)C)c(O)c1 (single isomer, unassigned) [VIIa(-), 4-trans-[2-(5-(1,1-dimethylheptyl)-resorcyl)]-10-hydroxy-pin-2-ene]
- Rat foot pressure ED50 [1]: 25 mg/kg
- Mouse writhing ED50 [2]: 7 mg/kg
- Mouse tail flick ED50 [3]: 6 mg/kg

SMILES: CCCCCC(C)C(C)c1cc(O)c(C2C=C(CO)C3CC2C3(C)C)c(O)c1 (single isomer, unassigned) [VIIb(+), 4-Trans[2-(5-(1,2-dimethylheptyl)-resorcyl)]-10-hydroxy-pin-2-ene]
- ED50 [1]: 15 mg/kg
- ED50 [2]: 5 mg/kg
- Mouse tail flick ED50 [3]: 30 mg/kg

SMILES: CCCCCC(C)C(C)c1cc(O)c(C2C=C(CO)C3CC2C3(C)C)c(O)c1 (single isomer, unassigned) [VIIb(-), 4-Trans-[2-(5-(1,2-dimethyheptyl)-resorcyl)]-10-hydroxy-pin-2-ene]
- Rat foot pressure ED50 [1]: 25 mg/kg
- Mouse writhing ED50 [2]: 7 mg/kg
- Mouse tail flick ED50 [3]: 6 mg/kg

SMILES: CCCCCCC(C)(C)c1cc(O)c(C2C=C(COC(C)=O)C3CC2C3(C)C)c(O)c1 (single isomer, unassigned) [VIa(+)]
- ED50 [1]: 35 mg/kg
- ED50 [2]: 10 mg/kg
- Mouse tail flick ED50 [3]: 30 mg/kg

SMILES: CCCCCCC(C)(C)c1cc(O)c(C2C=C(COC(C)=O)C3CC2C3(C)C)c(O)c1 (single isomer, unassigned) [VIa(-)]
- Rat foot pressure ED50 [1]: 25 mg/kg
- Mouse writhing ED50 [2]: 10 mg/kg
- Mouse tail flick ED50 [3]: 10 mg/kg

SMILES: CCCCCC(C)C(C)c1cc(O)c(C2C=C(COC(C)=O)C3CC2C3(C)C)c(O)c1 (single isomer, unassigned) [VIb(+)]
- ED50 [1]: 35 mg/kg
- ED50 [2]: 10 mg/kg
- Mouse tail flick ED50 [3]: 30 mg/kg

SMILES: CCCCCC(C)C(C)c1cc(O)c(C2C=C(COC(C)=O)C3CC2C3(C)C)c(O)c1 (single isomer, unassigned) [VIb(-)]
- Rat foot pressure ED50 [1]: 25 mg/kg
- Mouse writhing ED50 [2]: 10 mg/kg
- Mouse tail flick ED50 [3]: 10 mg/kg

SMILES: CCCCCCC(C)(C)c1cc(O)c(C2C=C(COC(=O)C(C)(C)C)C3CC2C3(C)C)c(O)c1 (single isomer, unassigned) [VIc(+)]
- ED50 [1]: 30 mg/kg
- ED50 [2]: 10 mg/kg

SMILES: CCCCCCC(C)(C)c1cc(O)c(C2C=C(COC(=O)C(C)(C)C)C3CC2C3(C)C)c(O)c1 (single isomer, unassigned) [VIc(-)]
- Rat foot pressure ED50 [1]: 30 mg/kg
- Mouse writhing ED50 [2]: < 10 mg/kg
- Mouse tail flick ED50 [3]: 10 mg/kg

SMILES: CCCCCC(C)C(C)c1cc(O)c(C2C=C(COC(=O)C(C)(C)C)C3CC2C3(C)C)c(O)c1 (single isomer, unassigned) [VId(+), 4-trans-[2-(5-(1,2-dimethylheptyl)-resorcyl)]-10-hydroxy-pin-2-ene, 10 pivalate]
- ED50 [1]: 30 mg/kg
- ED50 [2]: 10 mg/kg

SMILES: CCCCCC(C)C(C)c1cc(O)c(C2C=C(COC(=O)C(C)(C)C)C3CC2C3(C)C)c(O)c1 (single isomer, unassigned) [VId(-), 4-trans-[2-(5-(1,2-dimethylheptyl)-resorcyl)]-10-hydroxy-pin-2-ene, 10 pivalate]
- Rat foot pressure ED50 [1]: 30 mg/kg
- Mouse writhing ED50 [2]: < 10 mg/kg
- Mouse tail flick ED50 [3]: 10 mg/kg

SMILES: CCCCCC(C)C(C)c1cc(O)c(C2CC(C)C3CC2C3(C)C)c(O)c1 (single isomer, unassigned) [Xb(-), 4-Trans-[-(5-(1,2-dimethylheptyl)-resorcyl)]-pinane]
- ED50 [1]: ~50 mg/kg
- ED50 [2]: 6 mg/kg
- ED50 [3]: ~50 mg/kg

SMILES: CCCCCCC(C)(C)c1cc(O)c(C2CC(C)C3CC2C3(C)C)c(O)c1 (stereo not drawn) [Xa(+), 4-Trans-[2-(5-(1,1-dimethylheptyl)-resorcyl)]-pinane]
- Rat foot pressure ED50 [1]: ~ 50 mg/kg
- Mouse writhing ED50 [2]: 15 mg/kg
- Mouse tail flick ED50 [3]: ~ 50 mg/kg

SMILES: CCCCCCC(C)(C)c1cc(O)c(C2CC(C)C3CC2C3(C)C)c(O)c1 (stereo not drawn) [Xa(-), 4-trans-[2-(5-(1,1-dimethylheptyl)-resorcyl)]-pinane]
- Rat foot pressure ED50 [1]: ~ 50 mg/kg
- Mouse writhing ED50 [2]: 9 mg/kg
- Mouse tail flick ED50 [3]: ~ 50 mg/kg

SMILES: CCCCCC(C)C(C)c1cc(O)c(C2CC(C)C3CC2C3(C)C)c(O)c1 (stereo not drawn) [Xb(+), 4-Trans-[-(5-(1,2-dimethylheptyl)-resorcyl)]-pinane]
- Rat foot pressure ED50 [1]: ~ 50 mg/kg
- Mouse writhing ED50 [2]: 6 mg/kg
- Mouse tail flick ED50 [3]: ~ 50 mg/kg
